Columns and labels:
[1] = In vivo pharmacokinetics in rats; design: species or system Sprague Dawley rats; conditions: rat, cassette dosing; for clearance / half-life / Vd / Cmax / AUC(0-inf): male, Sprague-Dawley, plasma; for clearance / half-life / Vd: 1.0 mg/kg IV; for Vd: read-out: Vss; for Cmax / AUC(0-inf) / F: 3.0 mg/kg PO; for AUC(0-inf): read-out: AUC0-inf
Method: For in vivo pharmacokinetic experiments, test compounds were administered to male Sprague Dawley rats or male and female Cynomolgus monkeys intravenously or via oral gavage. For intravenous (IV) dosing, test compounds were dosed at 0.5 to 1 mg/kg using a formulation of 10% dimethylacetamide (DMAC) in acidified saline via IV bolus for rat and 5 min or 10 min IV infusion for monkey. For oral (PO) dosing, test compounds were dosed at 1.0 to 3.0 mg/kg using 5% DMAC in 0.5% methylcellulose in citrate buffer (pH 3.5). Blood samples were collected at predose and various time points up to 24 hours postdose. All blood samples were collected using EDTA as the anticoagulant and centrifuged to obtain plasma samples. The plasma concentrations of test compounds were determined by LC-MS methods. The measured plasma concentrations were used to calculate PK parameters by standard noncompartmental methods using Phoenix® WinNonlin software program (version 7.0, Pharsight Corporation).
In rats and monkeys, cassette dosing of test compounds were conducted to obtain preliminary PK parameters.

[2] = test system: U2OS/PD-L1 cells and Jurkat-PD-1-SHP cells; assay: Src homology region 2 domain-containing phosphatase (SHP) assay; format: cell-based; conditions: Homo sapiens, U2OS; PathHunter chemiluminescence, 2 hours
Outline: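 U2OS/PD-L1 cells and Jurkat-PD-1-SHP cells, 5000 each, were co-incubated with compound for 2 h at 37 °C in RPMI with 1% FBS. PathHunter enzyme-fragment complementation chemiluminescence reported PD-1/SHP recruitment. IC50 was fitted from percent of DMSO-control activity versus log concentration.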

clearance [1] | half-life [1] | Vd [1] | Cmax [1] | AUC(0-inf) [1] | F [1] | IC50 [2] | Structure (SMILES)
6.15 mL/min/kg | 264 min | 1.75 L/kg | 166 nM | 1.4 µM·h | 14% | 3 nM | Cc1c(Nc2nc(C(F)F)nc3cc(CN4CC[C@@H](O)C4)cnc23)cccc1-c1cccc(NC(=O)c2nc3c(n2C)CCN(CCC24CCC(C(=O)O)(CC2)C4)C3)c1Cl [Example 1, (R)-4-(2-(2-((2-chloro-3′-((2-(difluoromethyl)-7-((3-hydroxypyrrolidin-1-yl)methyl)pyrido[3,2-d]pyrimidin-4-yl)amino)-2′-methyl-[1,1′-biphenyl]-3-yl)carbamoyl)-1-methyl-1,4,6,7-tetrahydro-5H-imidazo[4,5-c]pyridin-5-yl)ethyl)bicyclo[2.2.1]heptane-1-carboxylic Acid]
7.85 mL/min/kg | 264 min | 2.63 L/kg | 111 nM | 1.07 µM·h | 14% | 3.9 nM | Cc1c(Nc2nc(C(F)F)nc3cc(CN4CC[C@@](C)(O)C4)cnc23)cccc1-c1cccc(NC(=O)c2nc3c(n2C)CCN(CCC24CCC(C(=O)O)(CC2)C4)C3)c1Cl [Example 2, (R)-4-(2-(2-((2-chloro-3′-((2-(difluoromethyl)-7-((3-hydroxy-3-methylpyrrolidin-1-yl)methyl)pyrido[3,2-d]pyrimidin-4-yl)amino)-2′-methyl-[1,1′-biphenyl]-3-yl)carbamoyl)-1-methyl-1,4,6,7-tetrahydro-5H-imidazo[4,5-c]pyridin-5-yl)ethyl)bicyclo[2.2.1]heptane-1-carboxylic Acid]
6.93 mL/min/kg | 234 min | 1.63 L/kg | 241 nM | 1.65 µM·h | 19% | 4 nM | Cc1c(NC(=O)c2nc3c(n2C)CCN(CCC24CCC(C(=O)O)(CC2)C4)C3)cccc1-c1cccc(Nc2nc(C(F)F)nc3cc(CN4CC[C@@H](O)C4)cnc23)c1C [Example 5, (R)-4-(2-(2-((3′-((2-(difluoromethyl)-7-((3-hydroxypyrrolidin-1-yl)methyl)pyrido[3,2-d]pyrimidin-4-yl)amino)-2,2′-dimethyl-[1,1′-biphenyl]-3-yl)carbamoyl)-1-methyl-1,4,6,7-tetrahydro-5H-imidazo[4,5-c]pyridin-5-yl)ethyl)bicyclo[2.2.1]heptane-1-carboxylic Acid]

Source: patent US11401279B2, “Pyrido[3,2-d]pyrimidine compounds as immunomodulators” (Incyte Corporation, priority 2019, dated 2022)
